Test results taken from PubChem BioAssay AID2060328 (Molecular Pharmacology Branch, DTP, NCI, 2025).
“And” between values parts separate entries of the source, which are not always exact repeats. Equal entries are not always repeated.

Test system: MDA-MB-231 multicell spheroids, viability (%T/C)
Experiment: Anticancer human tumor MDA-MB-231 cell line growth inhibition [IpAb];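 note: viability read after seven days of drug exposure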;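 for viability, T/C: 100% = DMSO vehicle control viability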
Conditions: for viability, T/C: stronger effect = lower value
Excerpt: Combinatorial screen of targeted agents with ipatasertib and abemaciclib in multi-cell type tumor spheroids
A high-throughput screen of multi-cell type tumor spheroids was designed to identify active combinations of targeted small molecules and ipatasertib or abemaciclib. Complex spheroids include a stromal component modeled by human endothelial cells (HUVEC) and fibroblasts modeled by human mesenchymal stem cells (MSCs). The concentration ranges selected for each drug and investigational agent were based upon clinically achievable concentrations if the clinical Cmax of the agent was known.
Compounds. The drugs and investigational agents: ipatasertib (NSC767898), abemaciclib(NSC768073), selumetinib (NSC741078), trametinib (758246), adavosertib (NSC754352), everolimus (NSC733504), sapanisertib (NSC764658), vemurafenib (NSC761431), venetoclax (NSC766270), copanlisib (NSC809693), apelisib (NSC765974), palbociblib (NSC758247), vemurafenib (NSC761431), dabrafenib (NSC764134), ravoxertinib (NSC781343), BMS-387032 (NSC767048), sotorasib (NSC818433), talazoparib (NSC767125) and afursertib (NSC778305), were obtained from the National Cancer Institute (NCI) Developmental Therapeutics Program Chemical Repository. The FDA-approved anticancer drug set is available from the NCI Developmental Therapeutics Program. […] The stock solutions were prepared in dimethyl sulfoxide (DMSO, Sigma-Aldrich, St. Louis, MO, cat. D2650) at 800-fold the tested concentration and stored at -70 degrees C prior to their use. All drugs and investigational agents were tested over a range starting from a high concentration at or near the clinical Cmax and decreasing in half-log increments. If the clinical Cmax for an agent had not been determined, the highest concentration tested was 10 microM.
NCI60 Cell Culture. NCI60 cell lines were obtained from the NCI Developmental Therapeutics Program Tumor Repository. For each lot of cells, the Repository performed Applied Biosystems AmpFLSTR Identifiler testing with PCR amplification to confirm consistency with the published Identifier STR profile for each cell line. Cells were kept in continuous culture for no more than 20 passages. The optimal seeding densities for each of the cell lines at each time point assessed were determined prior to performing the concentration response studies. Briefly, the NCI60 human tumor lines were grown as monolayers in RPMI 1640 medium supplemented with 10% FBS and 2 mmol/L L-glutamine.
An additional 9 lines were from the NCI60 cell line panel including MDA-MB-231 breast carcinoma, MDA-MB-468 breast carcinoma, MCF7 breast carcinoma, Hs578T breast carcinoma, MALME-3M melanoma, SK-MEL-2 melanoma, SK-OV-3 ovarian carcinoma, DU-145 prostate carcinoma, PC-3 prostate carcinoma, all cell lines along with major genetic alterations are listed on Table 2. Pooled donor human umbilical vein endothelial cells (HUVEC, Lonza, cat. CC-2519) and human mesenchymal stem cells (hMSC, Lonza, cat. PT-2501) were purchased from Lonza (Walkersville, MD).
PDMR cell lines were grown in complete medium (DC medium): Dulbecco's modified Eagle's medium (DMEM)/F12 supplemented with 5% fetal bovine serum (FBS), 2 mM L-glutamine, 100 U/mL penicillin and 100 µg/ml streptomycin, 0.4 µg/ml hydrocortisone, 10 ng/ml epidermal growth factor (EGF) recombinant human protein, 24 µg/mL adenine, and 0.1 mg/mL primocin. During culture from frozen stock vials, PDMR cells were cultured in the same medium containing 10 µM Y-27632 (see Table 3). The PDCs were cultured in complete DMEM/F12 media without 10 microM Y-27632 dihydrochloride for at least two passages prior to the screen. The pooled donor HUVEC and hMSC were cultured in endothelial cell growth medium 2 (PromoCell, Heidelberg, Germany, cat. C-22011) and mesenchymal stem cell growth medium 2 (PromoCell, cat. C-28009), respectively. For all experiments, HUVEC and hMSC were used at passages </=5.
[…]

[1] = curve of first compound, second compound 0.1 µM
[2] = curve of first compound, second compound 0.316 µM
[3] = curve of first compound, second compound 1 µM
[4] = curve of first compound, second compound 3.16 µM
[5] = curve of first compound, second compound 10 µM
[6] = second compound 0.1 µM, first compound 0.0316 µM
[7] = second compound 0.1 µM, first compound 0.1 µM
[8] = second compound 0.1 µM, first compound 0.316 µM
[9] = second compound 0.1 µM, first compound 1 µM
[10] = second compound 0.1 µM, first compound 3.16 µM
[11] = second compound 0.1 µM, first compound 10 µM
[12] = second compound 0.316 µM, first compound 0.0316 µM
[13] = second compound 0.316 µM, first compound 0.1 µM
[14] = second compound 0.316 µM, first compound 0.316 µM
[15] = second compound 0.316 µM, first compound 1 µM
[16] = second compound 0.316 µM, first compound 3.16 µM
[17] = second compound 0.316 µM, first compound 10 µM
[18] = second compound 1 µM, first compound 0.0316 µM
[19] = second compound 1 µM, first compound 0.1 µM
[20] = second compound 1 µM, first compound 0.316 µM
[21] = second compound 1 µM, first compound 1 µM
[22] = second compound 1 µM, first compound 3.16 µM
[23] = second compound 1 µM, first compound 10 µM
[24] = second compound 3.16 µM, first compound 0.0316 µM
[25] = second compound 3.16 µM, first compound 0.1 µM
[26] = second compound 3.16 µM, first compound 0.316 µM
[27] = second compound 3.16 µM, first compound 1 µM
[28] = second compound 3.16 µM, first compound 3.16 µM
[29] = second compound 3.16 µM, first compound 10 µM
[30] = second compound 10 µM, first compound 0.0316 µM
[31] = second compound 10 µM, first compound 0.1 µM
[32] = second compound 10 µM, first compound 0.316 µM
[33] = second compound 10 µM, first compound 1 µM
[34] = second compound 10 µM, first compound 3.16 µM
[35] = second compound 10 µM, first compound 10 µM

SMILES | IC50 [1] | IC50 [2] | IC50 [3] | viability, T/C [6] | viability, T/C [7] | viability, T/C [8] | viability, T/C [9] | viability, T/C [10] | viability, T/C [11] | viability, T/C [12] | viability, T/C [13] | viability, T/C [14] | viability, T/C [15] | viability, T/C [16] | viability, T/C [17] | viability, T/C [18] | viability, T/C [19] | viability, T/C [20] | viability, T/C [21] | viability, T/C [22] | further results
CC1(C)CCC(CN2CCN(c3ccc(C(=O)NS(=O)(=O)c4ccc(NCC5CCOCC5)c([N+](=O)[O-])c4)c(Oc4cnc5[nH]ccc5c4)c3)CC2)=C(c2ccc(Cl)cc2)C1 | – | – | – | – | – | – | – | – | – | – | – | – | – | – | – | – | – | – | – | – | viability, T/C (compound 0.0316 µM): 104% and 106%; viability, T/C (compound 0.1 µM): 105% and 104%; viability, T/C (compound 0.316 µM): 103% and 105%; viability, T/C (compound 1 µM): 98.5% and 103%; viability, T/C (compound 3.16 µM): 88.7% and 99.5%; viability, T/C (compound 10 µM): 10.3% and 8.49%; IC50 (curve of compound): 5.57 µM and 5.91 µM
CC(C)n1nc(-c2ccc3oc(N)nc3c2)c2c(N)ncnc21 | – | – | – | – | – | – | – | – | – | – | – | – | – | – | – | – | – | – | – | – | viability, T/C (compound 0.000316 µM): 97.7% and 101%; viability, T/C (compound 0.001 µM): 86.1% and 104%; viability, T/C (compound 0.00316 µM): 72.2% and 72.1%; viability, T/C (compound 0.01 µM): 57.6% and 49.4%; viability, T/C (compound 0.0316 µM): 46.5% and 41.5%; viability, T/C (compound 0.1 µM): 43.5% and 37.4%; IC50 (curve of compound): 0.0238 µM and 0.00868 µM
Cc1nc(NC(=O)N2CCCC2C(N)=O)sc1-c1ccnc(C(C)(C)C(F)(F)F)c1 (centres undefined) + CC(C)NCC(C(=O)N1CCN(c2ncnc3c2C(C)CC3O)CC1)c1ccc(Cl)cc1 | > 10 µM | > 10 µM | > 10 µM | 84.1% | 71.3% | 64.7% | 71.8% | 71.4% | 62.5% | 74.8% | 63.7% | 58.3% | 59.9% | 64.8% | 60.8% | 63.1% | 58.7% | 55.3% | 55.3% | 58% | IC50 [4]: < 0.0316 µM; IC50 [5]: < 0.0316 µM; viability, T/C [23]: 55.8%; viability, T/C [24]: 50.7%; viability, T/C [25]: 45.8%; viability, T/C [26]: 41.4%; viability, T/C [27]: 46%; viability, T/C [28]: 46.1%; viability, T/C [29]: 42.6%; viability, T/C [30]: 35.2%; viability, T/C [31]: 33.1%; viability, T/C [32]: 31.6%; viability, T/C [33]: 33.1%; viability, T/C [34]: 37.8%; viability, T/C [35]: 32.8%
CC1(C)CCC(CN2CCN(c3ccc(C(=O)NS(=O)(=O)c4ccc(NCC5CCOCC5)c([N+](=O)[O-])c4)c(Oc4cnc5[nH]ccc5c4)c3)CC2)=C(c2ccc(Cl)cc2)C1 + CCN1CCN(Cc2ccc(Nc3ncc(F)c(-c4cc(F)c5nc(C)n(C(C)C)c5c4)n3)nc2)CC1 | 4.26 µM | < 0.0316 µM | 3.22 µM | 64.2% | 66.6% | 63.9% | 65% | 66.4% | 6.54% | 50.5% | 50.4% | 48.2% | 47.9% | 44.8% | 7.02% | 48.2% | 52.7% | 52.9% | 53.4% | 50.7% | IC50 (curve of first compound, second compound 0.01 µM): 5.85 µM; IC50 (curve of first compound, second compound 0.0316 µM): 5.15 µM; viability, T/C (second compound 0.01 µM, first compound 0.0316 µM): 102%; viability, T/C (second compound 0.01 µM, first compound 0.1 µM): 97.5%; viability, T/C (second compound 0.01 µM, first compound 0.316 µM): 100%; viability, T/C (second compound 0.01 µM, first compound 1 µM): 101%; viability, T/C (second compound 0.01 µM, first compound 3.16 µM): 94.8%; viability, T/C (second compound 0.01 µM, first compound 10 µM): 11%; viability, T/C (second compound 0.0316 µM, first compound 0.0316 µM): 86.7%; viability, T/C (second compound 0.0316 µM, first compound 0.1 µM): 81.8%; viability, T/C (second compound 0.0316 µM, first compound 0.316 µM): 82.2%; viability, T/C (second compound 0.0316 µM, first compound 1 µM): 83.2%; viability, T/C (second compound 0.0316 µM, first compound 3.16 µM): 78.6%; viability, T/C (second compound 0.0316 µM, first compound 10 µM): 11.2%; viability, T/C [23]: 7.14%
CCCS(=O)(=O)Nc1ccc(F)c(C(=O)c2c[nH]c3ncc(-c4ccc(Cl)cc4)cc23)c1F + CC(C)NCC(C(=O)N1CCN(c2ncnc3c2C(C)CC3O)CC1)c1ccc(Cl)cc1 | 8.31 µM | 6.04 µM | 5.31 µM | 106% | 106% | 104% | 97.2% | 75.4% | 45.1% | 98.1% | 95.9% | 92.2% | 87.3% | 61.2% | 41.1% | 80.1% | 84.8% | 79.8% | 71.3% | 60.1% | IC50 [4]: 1.76 µM; IC50 [5]: < 0.0316 µM; viability, T/C [23]: 38.3%; viability, T/C [24]: 59.3%; viability, T/C [25]: 68.2%; viability, T/C [26]: 61.7%; viability, T/C [27]: 56.7%; viability, T/C [28]: 42.9%; viability, T/C [29]: 30.9%; viability, T/C [30]: 45.4%; viability, T/C [31]: 48.2%; viability, T/C [32]: 44.2%; viability, T/C [33]: 36.6%; viability, T/C [34]: 35%; viability, T/C [35]: 27.6%
